Here are results for 13 molecules from patent US20240343694A1, “PYRIMIDINE DERIVATIVE, METHOD FOR PREPARING SAME, AND PHARMACEUTICAL COMPOSITION FOR PREVENTING OR TREATING CANCER COMPRISING SAME AS ACTIVE INGREDIENT” (KOREA RESERARCH INSTITUTE OF CHEMICAL TECHNOLOGY, priority 2021, published 2024).

Assay [1] addresses HER2 A775_G776insYVMA (Homo sapiens (Human), UniProt P04626, INS775YVMA). The experiment in a line: HTRF inhibitory activity against HER2 mutant enzyme. The assay is classed as biochemical. The following applies: recombinant enzyme, 37° C. for 2 hours. The essentials: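 Recombinant HER2 A775_G776insYVMA preincubated with compound, then […] and biotinylated peptide ([…]) added; 2 h at 37 °C in Tris-HCl pH 7.5 buffer with MgCl2, DTT. HTRF detection (Eu anti-phosphotyrosine/streptavidin-XL665); IC50 from 7 concentrations.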
(Time-resolved FRET reads energy transfer from a long-lived donor to a nearby acceptor.)

The target in assay [2] is EGFR del19 (Homo sapiens (Human), UniProt P00533, DEL746-750). Briefly: HTRF inhibitory activity against EGFR mutant enzyme (EGFR del19). The assay is classed as biochemical. The following applies: recombinant enzyme, 37° C. for 2 hours. The essentials:
(§1)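 Recombinant EGFR del19 or A763_Y764insFHEA was premixed with compound in 50 mM Tris pH 7.5 with 7.5 mM MgCl2 and 1 mM DTT. ATP (50 mM as printed) and biotin-peptide (0.5 mM) were added and reacted 2 h at 37 °C. The HTRF 665/615 read used streptavidin-XL665 and Eu anti-phosphotyrosine. IC50 was fitted from 7 concentrations.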

Assay [3] deals with Ba/F3 HER2 A775_G776insYVMA. The experiment in a line: Growth inhibition of Ba/F3 HER2 mutant cells (CellTiter-Glo). Type of assay: cell-based. The following applies: Mus musculus, BaF3, 72 hours. As for the experimental part: The activity of the compounds of the present invention against Ba/F3 HER2 A775_G776insYVMA and Ba/F3 HER2 G776delinsVC mutant cell lines was measured using the CellTiter-Glo system purchased from Promega as follows. CellTiter-Glo assay is a method to measure cell viability by monitoring ATP present in cells. Ba/F3 HER2 A775_G776insYVMA and Ba/F3 HER2 G776delinsVC mutant cell lines were purchased from Crown Biosciences. Ba/F3 HER2 A775_G776insYVMA and Ba/F3 HER2 G776delinsVC mutant cell lines were cultured in RPMI containing 10% FBS and 1% penicillin-streptomycin with 1 μg/mL of puromycin in a CO2 incubator at 37° C.
(§2) The analysis of the ability of the compounds to inhibit the growth of HER2 mutant cells was performed according to the following method. 1,000 cells/100 μL were seeded in a 96-well cell culture plate, and 24 hours thereafter, the compounds represented by Formula 1 were treated with 0 μM, 0.01 μM, 0.03 μM, 0.1 μM, 0.3 μM, 1 μM, 3 μM, and 10 μM. After reacting for 72 hours, the plate treated with the compounds were left at room temperature for 30 minutes, 100 μL of a reagent was added thereto, and then shaken at room temperature for 10 minutes. Finally, using equipment, the ratio of […] was measured to confirm the cell growth inhibition ability of the compounds. The measured values at 8 compound concentrations were analyzed using the Prism program (version 5.01, Graphpad Software, Inc.), and the IC50 (μM) values, which are measures of the compounds' inhibitory ability, were calculated.
Background: In ATP-based viability assays light output follows the ATP content of the culture.

Assay [4] concerns the target EGFR A763_Y764insFHEA (Homo sapiens (Human), UniProt P00533, INS763FHEA). Briefly: HTRF inhibitory activity against EGFR mutant enzyme (EGFR A763_Y764insFHEA). The assay is classed as biochemical. The following applies: recombinant enzyme, 37° C. for 2 hours. The essentials:
as §1

Assay [5] deals with Ba/F3 EGFR V769_D770insASV. The experiment in a line: Growth inhibition of Ba/F3 EGFR mutant cells (CellTiter-Glo). The following applies: 72 hours. Type of assay: cell-based. As for the experimental part:
(§3) The activity of the compounds of the present invention against Ba/F3 EGFR V769_D770insASV and Ba/F3 EGFR D770_N771insSVD mutant cell lines was measured using the CellTiter-Glo system purchased from Promega as follows. CellTiter-Glo assay is a method to measure cell viability by monitoring ATP present in cells. Ba/F3 EGFR V769_D770insASV and Ba/F3 EGFR D770_N771insSVD mutant cell lines were purchased from Crown Biosciences. Ba/F3 EGFR V769_D770insASV and Ba/F3 EGFR D770_N771insSVD mutant cell lines were cultured in RPMI containing 10% FBS and 1% penicillin-streptomycin with 1 μg/mL of puromycin in a 5% CO2 incubator at 37° C.
as §2, with “growth of EGFR mutant cells” for “growth of HER2 mutant cells”, “μM. After incubating for 72” for “μM. After reacting for 72”, “reagent was further added thereto,” for “reagent was added thereto,”

Assay [6] relates to Ba/F3 EGFR D770_N771insSVD. Described as above. The following applies: Ba/F3 EGFR-D770-N771ins_SVD, 72 hours. The assay is classed as cell-based. How it is done: as §3
as §2, with “growth of EGFR mutant cells” for “growth of HER2 mutant cells”, “μM. After incubating for 72” for “μM. After reacting for 72”, “reagent was further added thereto,” for “reagent was added thereto,”

SMILES strings stand for the structures.

Chain of EGFR del19 (P00533 other isoform, or with tags, fused parts or gaps del 1-668/del 746-750 limits assumed): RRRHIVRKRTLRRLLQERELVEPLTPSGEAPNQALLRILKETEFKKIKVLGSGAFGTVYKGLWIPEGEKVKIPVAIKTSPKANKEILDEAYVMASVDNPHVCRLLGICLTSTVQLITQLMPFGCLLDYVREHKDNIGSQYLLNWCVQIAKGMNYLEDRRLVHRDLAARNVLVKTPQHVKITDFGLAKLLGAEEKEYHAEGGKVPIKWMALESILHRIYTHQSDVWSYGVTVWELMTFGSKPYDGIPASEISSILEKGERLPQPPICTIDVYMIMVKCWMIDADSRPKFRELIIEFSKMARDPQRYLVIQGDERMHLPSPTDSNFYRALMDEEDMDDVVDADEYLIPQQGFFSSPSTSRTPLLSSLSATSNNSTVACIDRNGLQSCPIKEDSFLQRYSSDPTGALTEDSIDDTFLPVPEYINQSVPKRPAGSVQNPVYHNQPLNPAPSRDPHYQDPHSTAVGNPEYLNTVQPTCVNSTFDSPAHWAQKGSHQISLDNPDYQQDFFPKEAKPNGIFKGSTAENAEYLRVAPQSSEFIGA
Chain of HER2 A775_G776insYVMA (P04626 other isoform, or with tags, fused parts or gaps del 1-675/ins YVMA behind 775 limits assumed): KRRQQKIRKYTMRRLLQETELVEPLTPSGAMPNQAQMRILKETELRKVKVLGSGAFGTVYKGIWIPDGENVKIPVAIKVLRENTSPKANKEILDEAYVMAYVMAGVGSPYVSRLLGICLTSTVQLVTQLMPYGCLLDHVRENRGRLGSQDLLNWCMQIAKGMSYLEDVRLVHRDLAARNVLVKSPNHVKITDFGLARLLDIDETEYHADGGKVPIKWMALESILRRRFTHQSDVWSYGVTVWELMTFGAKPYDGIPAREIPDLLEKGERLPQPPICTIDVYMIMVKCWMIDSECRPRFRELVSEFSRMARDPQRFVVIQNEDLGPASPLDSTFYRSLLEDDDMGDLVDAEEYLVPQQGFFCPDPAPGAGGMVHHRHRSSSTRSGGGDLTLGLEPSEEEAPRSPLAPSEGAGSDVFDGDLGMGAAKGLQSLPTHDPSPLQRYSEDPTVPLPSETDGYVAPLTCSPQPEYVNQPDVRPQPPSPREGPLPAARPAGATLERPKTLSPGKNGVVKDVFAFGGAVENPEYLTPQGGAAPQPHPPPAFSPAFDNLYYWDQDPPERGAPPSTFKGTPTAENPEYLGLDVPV
Chain of EGFR A763_Y764insFHEA (P00533 other isoform, or with tags, fused parts or gaps del 1-694/ins FHEA behind 763 limits assumed): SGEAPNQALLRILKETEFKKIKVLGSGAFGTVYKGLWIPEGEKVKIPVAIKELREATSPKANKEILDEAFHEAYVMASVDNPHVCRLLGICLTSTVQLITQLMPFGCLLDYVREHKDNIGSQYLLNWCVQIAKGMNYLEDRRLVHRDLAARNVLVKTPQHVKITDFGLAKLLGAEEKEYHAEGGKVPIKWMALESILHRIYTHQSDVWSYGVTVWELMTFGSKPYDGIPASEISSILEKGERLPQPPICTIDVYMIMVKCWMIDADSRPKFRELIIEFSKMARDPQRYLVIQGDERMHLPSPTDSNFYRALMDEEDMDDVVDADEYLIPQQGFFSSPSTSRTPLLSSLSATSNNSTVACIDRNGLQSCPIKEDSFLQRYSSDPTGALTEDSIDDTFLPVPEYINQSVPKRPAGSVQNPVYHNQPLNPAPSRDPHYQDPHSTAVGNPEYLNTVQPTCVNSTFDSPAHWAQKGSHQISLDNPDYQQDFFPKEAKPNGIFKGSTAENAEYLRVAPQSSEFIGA

On to `C=CC(=O)Nc1cc(Nc2ncc(Cl)c(Nc3ccccc3NS(=O)(=O)CCC)n2)c(OC)cc1N(C)CCN(C)C` [Example 1, N-(5-((5-chloro-4-((2-(propylsulfonamido)phenyl)amino)pyrimidin-2-yl)amino)-2-((2-(dimethylamino)ethyl)(methyl)amino)-4-methoxyphenyl)acrylamide], for which the IC50 (usually the concentration at which inhibition is half-maximal) is 140 nM in assay [1], under 1 nM in assay [2], 30 to 50 nM in assay [3] and 4 nM in assay [4].

`C=CC(=O)Nc1cc(Nc2ncc(Cl)c(Nc3ccccc3NS(=O)(=O)c3ccccc3)n2)c(OC)cc1N(C)CCN(C)C` [Example 2, N-(5-((5-chloro-4-((2-(phenylsulfonamido)phenyl)amino)pyrimidin-2-yl)amino)-2-((2-(dimethylamino)ethyl)(methyl)amino)-4-methoxyphenyl)acrylamide]: the IC50 in assay [1] was 310 nM; in assay [2] it was under 1 nM; in assay [3] it was 30 to 50 nM; in assay [4], 3 nM.

As to `C=CC(=O)Nc1cc(Nc2ncc(Cl)c(Nc3ccccc3NS(=O)(=O)c3ccc(C)cc3)n2)c(OC)cc1N(C)CCN(C)C` [Example 3, N-(5-((5-chloro-4-((2-((4-methylphenyl)sulfonamido)phenyl)amino)pyrimidin-2-yl)amino)-2-((2-(dimethylamino)ethyl)(methyl)amino)-4-methoxyphenyl)acrylamide], the IC50 in assay [1] was 450 nM; in assay [2], under 1 nM; in assay [3], 30 to 50 nM; in assay [4], 2 nM.

As to `C=CC(=O)Nc1cc(Nc2ncc(Cl)c(Nc3ccccc3NS(=O)(=O)C(C)C)n2)c(OC)cc1N(C)CCN(C)C` [Example 5, N-(5-((5-chloro-4-((2-((1-methylethyl)sulfonamido)phenyl)amino)pyrimidin-2-yl)amino)-2-((2-(dimethylamino)ethyl)(methyl)amino)-4-methoxyphenyl)acrylamide], the IC50 in assay [1] was 34 nM; in assay [2], under 1 nM; in assay [3] it was 30 to 50 nM; in assay [4], under 1 nM.

For `C=CC(=O)Nc1cc(Nc2nccc(Nc3ccccc3NS(=O)(=O)c3ccccc3)n2)c(OC)cc1N(C)CCN(C)C` [Example 6, N-(2-((2-(dimethylamino)ethyl)(methyl)amino)-4-methoxy-5-((4-((2-(phenylsulfonamido)phenyl)amino)pyrimidin-2-yl)amino)phenyl)acrylamide], the IC50 in assay [1] is 1200 nM; in assay [2], 7 nM; in assay [3], 30 to 50 nM; in assay [4], 20 nM.

As for `C=CC(=O)Nc1cc(Nc2nccc(Nc3ccccc3NS(C)(=O)=O)n2)c(OC)cc1N(C)CCN(C)C` [Example 7, N-(2-((2-(dimethylamino)ethyl)(methyl)amino)-4-methoxy-5-((4-((2-(methylsulfonamido)phenyl)amino)pyrimidin-2-yl)amino)phenyl)acrylamide], the half-maximal inhibitory concentration (IC50) is 280 nM in assay [1], under 1 nM in assay [2], 30 to 50 nM in assay [3] and 5 nM in assay [4].

With `C=CC(=O)Nc1cc(Nc2ncc(F)c(Nc3ccccc3NS(C)(=O)=O)n2)c(OC)cc1N(C)CCN(C)C` [Example 11, N-(2-((2-(dimethylamino)ethyl)(methyl)amino)-5-((5-fluoro-4-((2-(methylsulfonamido)phenyl)amino)pyrimidin-2-yl)amino)-4-methoxyphenyl)acrylamide], the half-inhibitory concentration (IC50) in assay [1] was 71 nM; in assay [2], under 1 nM; in assay [3], over 100 nM; in assay [5], over 100 nM; in assay [4] it was 1 nM.

For `C=CC(=O)Nc1cc(Nc2ncc(C)c(Nc3ccccc3NS(C)(=O)=O)n2)c(OC)cc1N(C)CCN(C)C` [Example 16, N-(2-((2-(dimethylamino)ethyl)(methyl)amino)-4-methoxy-5-((5-methyl-4-((2-(methylsulfonamido)phenyl)amino)pyrimidin-2-yl)amino)phenyl)acrylamide], the IC50 in assay [1] is 51 nM; in assay [2], under 1 nM; in assay [3], over 100 nM; in assay [5] it was over 100 nM; in assay [4], 2 nM.

On to `C=CC(=O)Nc1cc(Nc2ncc(Cl)c(Nc3ccccc3NS(C)(=O)=O)n2)c(OC)cc1N(C)CCN1CCCC1` [Example 21, N-(5-((5-chloro-4-((2-(methylsulfonamido)phenyl)amino)pyrimidin-2-yl)amino)-4-methoxy-2-(methyl(2-(pyrrolidin-1-yl)ethyl)amino)phenyl)acrylamide], for which the IC50 was 46 nM in assay [1], 1 nM in assay [2], 30 to 50 nM in assay [3] and 3 nM in assay [4].

Turning to `C=CC(=O)Nc1cc(Nc2ncc(Cl)c(Nc3cccc4c3N(S(C)(=O)=O)CC4)n2)c(OC)cc1N(C)CCN1CCCCC1` [Example 72, N-(5-((5-chloro-4-((1-(methylsulfonyl)indolin-7-yl)amino)pyrimidin-2-yl)amino)-4-methoxy-2-(methyl(2-(piperidin-1-yl)ethyl)amino)phenyl)acrylamide], the IC50 in assay [1] was 1 nM; in assay [2], under 1 nM; in assay [5], 10 to 30 nM; in assay [6] it was under 10 nM; in assay [4] it was under 1 nM.

`C=CC(=O)Nc1cc(Nc2ncc(Cl)c(Nc3cccc4c3N(S(C)(=O)=O)CC4)n2)c(OC)cc1N(C)CCN1CCCC1` [Example 74, N-(5-((5-chloro-4-((1-(methylsulfonyl)indolin-7-yl)amino)pyrimidin-2-yl)amino)-4-methoxy-2-(methyl(2-(pyrrolidin-1-yl)ethyl)amino)phenyl)acrylamide]: the IC50 was under 1 nM in assay [1]; under 1 nM in assay [2]; under 10 nM in assay [5]; under 10 nM in assay [6]; under 1 nM in assay [4].

As to `C=CC(=O)Nc1cc(Nc2ncc(Cl)c(Nc3ccc(C)cc3N(C)S(C)(=O)=O)n2)c(OC)cc1N(C)CCN1CCCC1` [Example 76, N-(5-((5-chloro-4-((4-methyl-2-(N-methylmethylsulfonamido)phenyl)amino)pyrimidin-2-yl)amino)-4-methoxy-2-(methyl(2-(pyrrolidin-1-yl)ethyl)amino)phenyl)acrylamide], the IC50 is 1 nM in assay [1]; under 1 nM in assay [2]; under 10 nM in assay [5]; under 10 nM in assay [6]; under 1 nM in assay [4].

Take `C=CC(=O)Nc1cc(Nc2ncc(Cl)c(Nc3cccc4c3N(S(C)(=O)=O)CC4)n2)c(OC)cc1OCCN1CCCC1` [Example 79, N-(5-((5-chloro-4-((1-(methylsulfonyl)indolin-7-yl)amino)pyrimidin-2-yl)amino)-4-methoxy-2-(2-(pyrrolidin-1-yl)ethoxy)phenyl)acrylamide]: the 50% inhibitory concentration (IC50) in assay [1] was 1 nM; in assay [2], under 1 nM; in assay [5] it was 10 to 30 nM; in assay [6] it was under 10 nM; in assay [4], under 1 nM.
